From patent publication EP0369388B1, “Hydroxy-1,2,3,4-tetrahydroaminoacridines, a process for their preparation and their use as medicaments” (HOECHST-ROUSSEL PHARMACEUTICALS INCORPORATED, priority 1988, dated 1990)
Where a name gives a salt, the structure may show the parent alone.

These compounds were tested on mice (assay: Dark Avoidance Assay (reversal of scopolamine induced memory deficit)). Conditions: Dose 0.63 mg/kg of body weight, s.c; mice, retest after 24 hours.
Assay type: in vivo
Description: This utility can also be ascertained by determining the ability of these compounds to restore cholinergically deficient memory in the Dark Avoidance Assay. In this assay mice are tested for their ability to remember an unpleasant stimulus for a period of 24 hours. A mouse is placed in a chamber that contains a dark compartment; a strong incadescent light drives it to the dark compartment, where an electric shock is administered through metal plates on the floor. The animal is removed from the testing apparatus and tested again, 24 hours later, for the ability to remember the electric shock.
If scopolamine, an anticholinergic that is known to cause memory impairment, is administered before an animal's initial exposure to the test chamber, the animal re-enters the dark compartment shortly after being placed in the test chamber 24 hours later. This effect of scopolamine is blocked by an active test compound, resulting in a greater interval before re-entry into the dark compartment.
The results for an active compound are expressed as the percent of a group of animals in which the effect of scopolamine is blocked, as manifested by an increased interval between being placed in the test chamber and re-entering the dark compartment.

Structure (SMILES)	% of Animals with Scopolamine Induced Memory Deficit Reversal
CCCCCC(=O)OC1CCc2nc3ccccc3c(N)c2C1.O=C(O)/C=C/C(=O)O (stereo not shown) [2-Hexanoyloxy-1,2,3,4-tetrahydro-9-acridinamine, fumarate]	25%

Same assay, conditions: Dose 5.0 mg/kg of body weight, s.c; mice, retest after 24 hours

Structure (SMILES)	% of Animals with Scopolamine Induced Memory Deficit Reversal
CC(=O)OC1CCc2nc3ccccc3c(N)c2C1 (stereo not shown) [2-Acetoxy-1,2,3,4-tetrahydro-9-acridinamine]	29%
CCC(=O)OC1CCc2nc3ccccc3c(N)c2C1 (stereo not shown) [2-Propionyloxy-1,2,3,4-tetrahydro-9-acridinamine, fumarate hemihydrate]	13%
Nc1c2c(nc3ccccc13)CCC(O)C2.O=C(O)/C=C\C(=O)O (stereo not shown) [9-Amino-1,2,3,4-tetrahydroacridin-2-ol, maleate]	20%

Same assay, conditions: mouse, in vivo, 0.31 mg/kg

Structure (SMILES)	% of Animals with Scopolamine Induced Memory Deficit Reversal
CNC(=O)Oc1ccc2c(c1)[C@]1(C)CCN(C)[C@@H]1N2C [Physostigmine, reference compound]	20%

The compounds below were run against acetylcholinesterase (Homo sapiens, UniProt P22303) (assay: biochemical). Conditions: not given.
Description: The ability to inhibit acetylchlinesterase was determined by the photometric method of Ellman et al., Biochem. pharmacol.

acetylcholinesterase, sequence (P22303 32-614): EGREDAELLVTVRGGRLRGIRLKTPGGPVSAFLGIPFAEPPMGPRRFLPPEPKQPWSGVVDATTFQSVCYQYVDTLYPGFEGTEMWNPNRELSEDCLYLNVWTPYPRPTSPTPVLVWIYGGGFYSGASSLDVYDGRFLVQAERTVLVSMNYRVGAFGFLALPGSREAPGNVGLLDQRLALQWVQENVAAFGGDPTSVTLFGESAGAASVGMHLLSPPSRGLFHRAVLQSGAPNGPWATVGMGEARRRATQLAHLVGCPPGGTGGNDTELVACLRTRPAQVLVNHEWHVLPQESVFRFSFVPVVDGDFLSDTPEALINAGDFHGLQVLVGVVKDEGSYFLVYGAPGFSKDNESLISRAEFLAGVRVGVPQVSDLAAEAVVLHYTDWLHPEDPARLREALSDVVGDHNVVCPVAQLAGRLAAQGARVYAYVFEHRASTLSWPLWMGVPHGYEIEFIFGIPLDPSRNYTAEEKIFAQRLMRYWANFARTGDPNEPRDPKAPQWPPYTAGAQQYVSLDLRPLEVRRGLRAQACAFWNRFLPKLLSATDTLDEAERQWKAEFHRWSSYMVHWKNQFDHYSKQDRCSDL

Structure (SMILES)	IC50
Nc1c2c(nc3ccccc13)CCC(OCc1ccccc1)C2 (stereo not shown) [2-Benzyloxy-1,2,3,4-tetrahydro-9-acridinamine]	> 1000 µM
CCCC(=O)OC1CCc2nc3ccccc3c(N)c2C1 (stereo not shown) [2-Butyryloxy-1,2,3,4-tetrahydro-9-acridinamine, fumarate]	4.8 µM
CCCCCCCCCC(=O)OC1CCc2nc3ccccc3c(N)c2C1 (stereo not shown) [2-Decanoyloxy-1,2,3,4-tetrahydro-9-acridinamine, fumarate]	> 1000 µM
CCCCCCCCCCCC(=O)OC1CCc2nc3ccccc3c(N)c2C1 (stereo not shown) [2-Lauroyloxy-1,2,3,4-tetrahydro-9-acridinamine]	160 µM
CCCCCCCC(=O)OC1CCc2nc3ccccc3c(N)c2C1 (stereo not shown) [2-Octanoyloxy-1,2,3,4-tetrahydro-9-acridinamine, fumarate]	23 µM
CCCCC(=O)OC1CCc2nc3ccccc3c(N)c2C1 (stereo not shown) [2-Valeryloxy-1,2,3,4-tetrahydro-9-acridinamine, fumarate]	12 µM
Nc1c2c(nc3ccccc13)C(OCc1ccccc1)CCC2 (stereo not shown) [4-Benzyloxy-1,2,3,4-tetrahydro-9-acridinamine]	820 µM

Same assay, conditions: Acetylcholinesterase Inhibition; read-out: IC50 (molar conc.)

Structure (SMILES)	IC50
CC(=O)OC1CCc2nc3ccccc3c(N)c2C1 (stereo not shown) [2-Acetoxy-1,2,3,4-tetrahydro-9-acridinamine]	6.5 µM
CCCCCCC(=O)OC1CCc2nc3ccccc3c(N)c2C1 (stereo not shown) [2-Heptanoyloxy-1,2,3,4-tetrahydro-9-acridinamine, fumarate]	31 µM
CCCCCC(=O)OC1CCc2nc3ccccc3c(N)c2C1.O=C(O)/C=C/C(=O)O (stereo not shown) [2-Hexanoyloxy-1,2,3,4-tetrahydro-9-acridinamine, fumarate]	19 µM
CN(C)C=Nc1c2c(nc3ccccc13)CCC(O)C2 (stereo not shown) [2-Hydroxy-N-(dimethylaminomethylene)-1,2,3,4-tetrahydro-9-acridinamine]	> 1000 µM
CCCCCCCCC(=O)OC1CCc2nc3ccccc3c(N)c2C1 (stereo not shown) [2-Nonanoyloxy-1,2,3,4-tetrahydro-9-acridinamine, fumarate]	> 1000 µM
Nc1c2c(nc3ccccc13)CCC(O)C2.O=C(O)/C=C\C(=O)O (stereo not shown) [9-Amino-1,2,3,4-tetrahydroacridin-2-ol, maleate]	5.3 µM
Nc1c2c(nc3ccccc13)C(O)CCC2 (stereo not shown) [9-Amino-1,2,3,4-tetrahydroacridinamin-4-ol, hemifumarate]	1.9 µM
